Experimental data reported in patent publication US9233947B2, “Sulfamides as TRPM8 modulators” (Janssen Pharmaceutica, NV, priority 2008, dated 2016).

Key:
canine TRPM8 = canine TRPM8 (Canis lupus familiaris, UniProt Q1A7N1); test: In Vitro Canine TRPM8 Functional Assay (intracellular Ca2+ fluorescence, icilin activation); type: cell-based; details: HEK293 cells stably expressing canine TRPM8; for IC50: icilin challenge at ~80% maximal response, eight-point dose-response, single determinations, read-out: IC50 (μM) @ 0.2; for % Inh @ 0.2 (μM) / inhibition at 0.2 µM: 0.2 μM compound, icilin challenge
Experimental: The functional activity of compounds of the formula (I) was determined by measuring changes in intracellular calcium concentration using a Ca^2+-sensitive fluorescent dye. The changes in fluorescent signal were monitored by a fluorescence plate reader, either a FLIPR™ (Molecular Devices) or FDSS (Hamamatsu).
At 24 hrs prior to assay, HEK293 cells stably expressing canine TRPM8 were seeded in culture medium in black wall, clear-base poly-D-lysine coated 384-well plates (BD Biosciences, NJ, USA) and grown overnight in 5% CO2 at 37° C. On assay day, growth media was removed and cells were loaded with Calcium 3 Dye (Molecular Devices) for 35 min at 37° C., under 5% CO2 and then for 25 min at room temperature and atmosphere. Subsequently, cells were tested for agonist-induced increases in intracellular Ca^2+ levels using FLIPR™ or FDSS. Cells were challenged with a compound of the Formula (I) (at varying concentrations) and intracellular Ca^2+ was measured for 5 min prior to the addition of icilin to all wells to achieve a final concentration that produces approximately an 80% maximal response. EC50 or IC50 values for compounds of the present invention were determined from eight-point dose-response studies. Curves were generated using the average of quadruplicate wells for each data point.

[1] = test system: icilin-induced "wet-dog" shakes; test: Reversal of icilin-induced "wet-dog" shaking behavior in rats; type: in vivo; details: 10 mg/kg p.o., 1 h post-icilin, relative to WDS count prior to test compound dose
Experimental: Male Sprague Dawley rats (220-450 g, Charles River Labs, n=6-9/treatment) may be used to evaluate the ability of selected compounds of the formula (I) to block icilin-induced “wet-dog” shakes (WDS). Compounds of the formula (I) may be administered in an appropriate vehicle, such as hydroxypropyl-β-cyclodextrin (HPβCD), methocellulose, 10% Solutol, or H2O, or the like, by the appropriate route, i.p. or p.o., 30-120 minutes before icilin. Icilin may be administered in PEG-400 or 10% solutol/H2O, at 1.0 or 3.0 mg/kg, i.p. and spontaneous “wet-dog” shakes may be counted 10-20 minutes post-icilin.
Compounds of the present invention capable of inhibiting the onset of icilin-induced “wet-dog” shaking behavior may also be assessed for their ability to reverse an existing icilin-induced “wet-dog” shaking behavior. In this paradigm, icilin-induced shaking is counted for 10 minutes followed by administration of a compound of the present invention in a suitable vehicle such as hydroxypropyl methylcellulose, hydroxypropyl-β-cyclodextrin or 10% Solutol in water. The diminution of shaking behavior is represented as a percent inhibition relative to icilin-induced shakes in the absence of test compound administration, as described by the following formula: % Inhibition=[1−(WDS count following test compound dose/WDS count prior to test compound dose)]×100.

Chain of canine TRPM8 (Q1A7N1 1-1104): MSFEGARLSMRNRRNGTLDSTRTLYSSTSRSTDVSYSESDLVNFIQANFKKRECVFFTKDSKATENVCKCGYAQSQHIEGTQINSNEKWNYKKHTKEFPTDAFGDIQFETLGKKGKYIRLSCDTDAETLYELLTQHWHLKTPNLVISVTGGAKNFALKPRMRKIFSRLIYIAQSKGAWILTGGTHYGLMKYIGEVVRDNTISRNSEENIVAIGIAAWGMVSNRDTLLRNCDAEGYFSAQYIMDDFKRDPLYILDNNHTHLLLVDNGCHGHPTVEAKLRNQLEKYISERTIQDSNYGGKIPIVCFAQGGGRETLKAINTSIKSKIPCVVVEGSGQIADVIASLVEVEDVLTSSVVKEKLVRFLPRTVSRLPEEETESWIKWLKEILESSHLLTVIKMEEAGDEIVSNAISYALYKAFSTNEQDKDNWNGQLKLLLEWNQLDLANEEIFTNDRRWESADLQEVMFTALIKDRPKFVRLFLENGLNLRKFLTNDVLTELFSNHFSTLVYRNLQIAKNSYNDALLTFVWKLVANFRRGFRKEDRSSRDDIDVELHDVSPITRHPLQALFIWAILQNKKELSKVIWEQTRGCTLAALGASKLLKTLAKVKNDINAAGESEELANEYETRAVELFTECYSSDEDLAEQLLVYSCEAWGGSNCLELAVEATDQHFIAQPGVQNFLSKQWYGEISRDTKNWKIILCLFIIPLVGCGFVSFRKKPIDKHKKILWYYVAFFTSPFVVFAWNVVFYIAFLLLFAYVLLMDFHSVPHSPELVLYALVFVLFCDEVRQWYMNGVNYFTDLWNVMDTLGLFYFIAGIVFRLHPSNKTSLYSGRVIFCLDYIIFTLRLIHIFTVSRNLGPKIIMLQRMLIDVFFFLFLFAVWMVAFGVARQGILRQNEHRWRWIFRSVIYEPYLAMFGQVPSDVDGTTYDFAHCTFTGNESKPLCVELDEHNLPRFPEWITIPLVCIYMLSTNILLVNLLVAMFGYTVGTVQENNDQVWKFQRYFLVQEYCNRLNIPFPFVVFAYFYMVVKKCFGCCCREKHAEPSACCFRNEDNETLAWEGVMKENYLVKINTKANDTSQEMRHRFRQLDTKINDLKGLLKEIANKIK

IC50 (canine TRPM8)	% Inh @ 0.2 (μM) (canine TRPM8)	inhibition at 0.2 µM (canine TRPM8)	Compound	% Inhibition [1]
0.06 µM	–	–	4-Isopropyl-piperazine-1-sulfonic acid (3-methyl-benzo[b]thiophen-2-yl)-(4-trifluoromethoxy-benzyl)-sulfamoyl]-amide [Compound 4]	–
0.071 µM	–	–	4-(3-Methyl-butyl)-piperazine-1-sulfonic acid (3-methyl-benzo[b]thiophen-2-yl)-(4-trifluoromethoxy-benzyl)-sulfamoyl]-amide [Compound 5]	–
0.0085 µM	101%	–	O=C(O)CCCCNS(=O)(=O)N(Cc1ccc(F)c(C(F)(F)F)c1)c1sc2ccccc2c1Br [Compound 16]	–
0.061 µM	–	70%	Cc1c(N(Cc2ccc(OC(F)(F)F)cc2)S(=O)(=O)N2CCC(C(=O)NCCN(C)C)CC2)sc2ccccc12 [Compound 12, 1-[(3-Methyl-benzo[b]thiophen-2-yl)-(4-trifluoromethoxy-benzyl)-sulfamoyl]-piperidine-4-carboxylic acid (2-dimethylamino-ethyl)-amide]	–
–	33%	–	O=C(O)CNS(=O)(=O)N(Cc1ccc(F)c(C(F)(F)F)c1)c1sc2ccccc2c1Br [Compound 14, N-(3-Bromo-benzo[b]thiophen-2-yl)-N-(4-fluoro-3-trifluorobenzyl)-(N-acetic acid)-sulfonamide]	–
0.062 µM	72%	–	Cc1c(N(Cc2ccc(F)c(C(F)(F)F)c2)S(=O)(=O)NCCCC(=O)O)sc2ccccc12 [Compound 13, N-(4-Fluoro-3-trifluoromethyl-benzyl)-N-(3-methyl-benzo[b]-thiophen-2-yl)-N′-(butyric acid)-sulfonamide]	–
0.018 µM	101%	–	O=C(O)CCCNS(=O)(=O)N(Cc1ccc(F)c(C(F)(F)F)c1)c1sc2ccccc2c1Br [Compound 15, N-(3-Bromo-benzo[b]thiophen-2-yl)-N-(4-fluoro-3-trifluorobenzyl)-(N-butyric acid)-sulfonamide]	–
0.046 µM	90%	–	4-Methyl-piperazine-1-sulfonic acid (3-methyl-benzo[b]thiophen-2-yl)-(4-trifluoromethoxy-benzyl)-sulfamoyl]-amide [Compound 6]	–

Further lines, the compound ahead of its results:

Compound	IC50 (canine TRPM8)	% Inh @ 0.2 (μM) (canine TRPM8)	inhibition at 0.2 µM (canine TRPM8)	% Inhibition [1]
Cc1c(N(Cc2ccc(OC(F)(F)F)cc2)S(=O)(=O)N2CCN(CC(F)(F)F)CC2)sc2ccccc12 [Compound 7]	0.013 µM	100%	–	–
Cc1c(N(Cc2ccc(OC(F)(F)F)cc2)S(=O)(=O)NS(=O)(=O)N2CCC(N(C)C)CC2)sc2ccccc12 [Compound 8]	–	36%	–	–
Cc1c(N(Cc2ccc(OC(F)(F)F)cc2)S(=O)(=O)NS(=O)(=O)N2CCN(N3CCCC3)CC2)sc2ccccc12 [Compound 9]	–	9%	–	–
Cc1c(N(Cc2ccc(OC(F)(F)F)cc2)S(=O)(=O)N2CCCCC2)sc2ccccc12 [Compound 1, Piperidine-1-sulfonic acid (3-methyl-benzo[b]thiophen-2-yl)-(4-trifluoromethoxy-benzyl)-amide]	0.0036 µM	–	99%	–
Cc1c(N(Cc2ccc(OC(F)(F)F)cc2)S(=O)(=O)N2CCOCC2)sc2ccccc12 [Compound 2, Morpholine-1-sulfonic acid (3-methyl-benzo[b]thiophen-2-yl)-(4-trifluoromethoxy-benzyl)-amide]	0.0057 µM	100%	–	–
Cc1c(N(Cc2ccc(OC(F)(F)F)cc2)S(=O)(=O)N2CCC(C(=O)N3CCN(C)CC3)CC2)sc2ccccc12 [Compound 11]	–	30%	–	–
Cc1c(N(Cc2ccc(OC(F)(F)F)cc2)S(=O)(=O)N2CCC(C(=O)O)CC2)sc2ccccc12 [Compound 10, 1-[(3-Methyl-benzo[b]thiophen-2-yl)-(4-trifluoromethoxy-benzyl)-sulfamoyl]-piperidine-4-carboxylic acid]	0.0046 µM	–	101%	57%
Cc1c(N(Cc2ccc(OC(F)(F)F)cc2)S(=O)(=O)NS(=O)(=O)N2CCNCC2)sc2ccccc12 [Compound 3]	–	19%	–	–
